Here are results for two molecules from patent US9303036B2, “Crystalline asenapine hydrochloride salt forms” (Sandoz AG, priority 2011, dated 2016).

Molecules are shown by their SMILES. Where a name gives a salt, the structure may show the parent alone.

Series [1] in a line: Water uptake by dynamic vapor absorption. Format: physicochemical. How it is done:
Asenapine HCl dihydrate of the invention can absorb about 1.5% of additional water at 95% relative humidity at 25° C. and most of the water uptake occurs above 80% relative humidity as shown by dynamic vapor absorption.

Series [2] can be described thus: Aqueous solubility by suspension equilibration in water, concentration in filtrate by HPLC. Format: physicochemical. How it is done:
The aqueous solubility was determined after 40 hours of suspension equilibration at 25° C. Thereafter, the suspension was filtered and the concentration in the liquid phase was determined by HPLC. The excellent solubility of the Asenapine hydrochloride dihydrate of the invention may render the salt to an excellent alternative to known salts of Asenapine, especially for a fast dissolving formulation.
An HPLC instrument from TSP (UV3000, AS3000, P4000, SCM1000 using software version 4.1) was used in combination with a column from Waters (XTerra MS 018, 4.6×100 mm, 5 μm (CC01A)). The mobile phase A was H2O/ACN 95:5 with 0.1% TFA, and mobile phase B was H2O/ACN 5:95 with 0.1% TFA. The reference concentration was 0.09 mg/mL. The Asenapine peak appeared at a retention time.
4.0-4.1 min. The method was isocratic with 70% mobile phase A and 30% mobile phase B at 0 min and after 10 min at a flow of 1.0 mL/min. The injection volume was 10 μL and the detection wavelength 202 nm.
The aqueous solubility of Asenapine salts is determined in water after 48 hours of suspension equilibration at 25° C. 200 mg of Asenapine hydrochloride is suspended in 1.5 ml of bidistilled water and the resulting suspension is placed on a laboratory shaker at 500 rpm. Thereafter, the suspension is filtered and the concentration in the liquid phase was determined by HPLC as described above. […]

For series [3] the following is noted: 23° C., pH=4.4; cited from earlier work.
Series [4] can be described thus: Solubility of Asenapine maleate in saturated solution (Funke et al., literature). The series is classed as physicochemical. As to conditions: water (saturated solution), thermodynamic from solid, converted from the maleate salt value at 23° C., pH=4.4, read-out: free base solubility. The text has this: Certain crystalline addition salts of Asenapine, for instance a fumarate (EP 0569096), salts with sulfonic acids (WO 98/54186), and a pamoate or hemipamoate salt (EP 0569096), are described in the literature. The pamoate salt is disclosed to be amorphous and the hemipamoate salt is a mixture of amorphous and crystalline phase, wherein the palmitate is described as oil. The marketed form is the maleate salt, which is disclosed to exist in polymorphic forms (WO 2006/106135). The known Asenapine salts have a low solubility in water.

On to `CN1C[C@H]2c3ccccc3Oc3ccc(Cl)cc3[C@@H]2C1` (relative stereo) [Asenapine HCl dihydrate, trans-5-chloro-2-methyl-2,3,3a,12b-tetrahydro-1H-dibenz[2,3:6,7]oxepino[4,5-c]pyrrole], for which the additional water absorbed result in series [1] (95% relative humidity at 25° C., most uptake above 80% relative humidity) is reported as “about 1.5%”. In series [1] (dynamic vapor absorption, 25° C.), the hygroscopicity result was “not, or only very slightly hygroscopic”. Also, the solubility at 2 days in series [2] (pH 4, thermodynamic from solid, 25° C., 600 rpm, two days of equilibration, at a pH of 4.0, read-out: aqueous solubility (concentration of Asenapine in the filtered solution by HPLC)) was 24.2 mg/mL. Besides, in series [2] (thermodynamic from solid, at 25° C., calculated as free base, after 40 hours of suspension equilibration, HPLC), the solubility at 40 h was 24.2 mg/mL.

Take `CN1C[C@@H]2c3ccccc3Oc3ccc(Cl)cc3[C@H]2C1` (relative stereo) [maleate salt of Asenapine, trans-5-chloro-2-methyl-2,3,3a,12b-tetrahydro-1H-dibenz[2,3:6,7]oxepino[4,5-c]pyrrole]: the “concentration of saturated solution” value in series [3] was 5800 µg/mL. In addition, in series [4], the solubility is roughly 4.1 mg/mL.
